Literature values in patent publication US20240050452A1, “USE OF C[…] THE TREATMENT OF SEIZURES ASSOCIATED WITH EPILEPSY SYNDROMES IN PATIENTS TAKING BRIVARACETAM” (GW Research Limited, priority 2020, published 2024).

Test system: seizure frequencies
Conditions: increasing CBD dose combined with a constant BRV dose; seizure types not disclosed

Compound: C=C(C)[C@@H]1CCC(C)=C[C@H]1c1c(O)cc(CCCCC)cc1O [CBD, cannabidiol]
- effect on seizure frequencies: reductions in seizure frequencies
